Results reported in patent US8546389B2 (priority 2010, dated 2013).

What was measured:
1b (BK) NS5bΔ21 = 1b (BK) NS5bΔ21 (Hepatitis C virus genotype 1b (isolate BK) (HCV), UniProt P26663); experiment: HCV polymerase inhibition assay, genotype 1b; format: biochemical, HCV genotype 1b (BK); conditions: 1b (BK) NS5bΔ21, 33P-GTP incorporation; read-out: 1b polymerase IC50 (range class)
Protocol: HCV polymerase reactions were carried out using a modified method of Howe et al., Antimicrobial Agents and Chemotherapy 2004 48(12): 4813-4821. Reactions contained a final concentration of, 0.5% DMSO, 50 nM, 1b (BK) NS5bΔ21, 20 mM Tris-HCl pH 7.5, 5 mM MgCl2, 5 mM MnCl2, 3 mM DTT, 0.05% BSA, 0.2 U/μL RNasin, 10 μg/mL Poly(rC) template, GTP (at Km) and 0.05 μCi/μL ^33P-GTP in a total reaction volume of 50 μL. Compounds were tested in a three fold dilution series, for example starting from 50 μM. Reactions were initiated with the addition of GTP and terminated after 1 hour with 50 μL ice cold 0.2 M EDTA. Terminated reactions were transferred to DEAE 96-well filter plates, unincorporated nucleotides washed from the filters and 50 μL scintillation fluid added prior to reading on a scintillation counter. Similarly, a genotype 3a (VRL-69) NS5bΔ21 polymerase enzyme assay was conducted using essentially the same method.
The compound concentration that reduced ^33P-GTP incorporation by 50% (IC50) was calculated using non-linear regression.

[1] = tested on: genotype 1b (Con 1) subgenomic replicon cell line; experiment: HCV replicon assay, genotype 1b (Renilla luciferase); format: cell-based, HCV genotype 1b (Con 1); conditions: Hepatitis C virus; genotype 1b replicon, 72 hours, luciferase; read-out: genotype 1b EC50 (range class)
Protocol: A genotype 1b (Con 1) subgenomic replicon cell line based on Blight et al., Science 2000 290: 1972-1974, modified to express a Renilla luciferase reporter gene was used to assess antiviral activity of test compounds. Cell cultures were maintained in a sub-confluent state in DMEM with glutamine, 10% heat-inactivated foetal bovine serum (FBS) and G418 (Geneticin®).
For assay, cells were seeded at a density of 7000 cells/well into 96 well tissue culture trays in culture media lacking G418. Compounds were tested in a three fold dilution series, for example starting from 50 uM. After 72 hours incubation at 37° C. and 5% CO2, Renilla luciferase activity was quantified via the Promega Renilla Luciferase or Renilla-Glo™ Luciferase Assay Systems (Promega corporation. The same method was employed for replicon assays using subgenomic genotype 1a and 2a replicon cell lines with a seeding cell density of 5000 cells/well for the 2a cell lines.
The compound concentration that reduced luciferase activity by 50% (EC50) was calculated using non-linear regression.

1b (BK) NS5bΔ21, sequence (P26663 2420-2989): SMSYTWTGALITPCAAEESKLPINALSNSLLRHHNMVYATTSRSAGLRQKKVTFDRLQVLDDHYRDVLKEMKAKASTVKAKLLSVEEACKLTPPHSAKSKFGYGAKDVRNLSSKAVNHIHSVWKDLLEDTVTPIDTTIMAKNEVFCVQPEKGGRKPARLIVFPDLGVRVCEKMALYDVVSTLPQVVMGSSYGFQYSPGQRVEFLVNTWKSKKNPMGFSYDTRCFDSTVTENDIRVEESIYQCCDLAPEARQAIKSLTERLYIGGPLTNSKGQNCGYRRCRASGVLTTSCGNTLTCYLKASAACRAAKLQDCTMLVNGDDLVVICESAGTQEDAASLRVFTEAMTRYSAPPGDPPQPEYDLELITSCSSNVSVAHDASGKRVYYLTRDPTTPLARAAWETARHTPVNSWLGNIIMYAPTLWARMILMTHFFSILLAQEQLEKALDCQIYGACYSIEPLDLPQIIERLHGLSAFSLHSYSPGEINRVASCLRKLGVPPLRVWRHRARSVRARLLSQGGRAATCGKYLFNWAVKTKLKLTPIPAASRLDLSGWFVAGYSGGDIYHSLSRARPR

SMILES: CNC(=O)c1c2cc(C3CC3)c(NS(C)(=O)=O)cc2nn1-c1ccc(Br)cc1 [Compound 1, 2-(4-bromophenyl)-5-cyclopropyl-N-methyl-6-[(methylsulfonyl)amino]-2H-indazole-3-carboxamide]
- IC50 (1b (BK) NS5bΔ21): 10 to 50 µM
- EC50 [1]: 1 to 9.99 µM

SMILES: CNC(=O)c1c2cc(C3CC3)c(N(CCO)S(C)(=O)=O)cc2nn1-c1ccc(Oc2ccc(F)cc2)cc1 [Compound 3, 5-cyclopropyl-2-[4-(4-fluorophenoxy)phenyl]-6-[(2-hydroxyethyl)-(methylsulfonyl)amino]-N-methyl-2H-indazole-3-carboxamide]
- IC50 (1b (BK) NS5bΔ21): 1 to 9.99 µM
- EC50 [1]: < 0.99 µM

SMILES: CNC(=O)c1c2cc(C3CC3)c(N(CCNC(=O)Cc3nn[nH]n3)S(C)(=O)=O)cc2nn1-c1ccc(Br)cc1 [Compound 8, 2-(4-bromophenyl)-5-cyclopropyl-N-methyl-6-[(methylsulfonyl){2-[(2H-tetrazol-5-ylacetyl)amino]ethyl}amino]-2H-indazole-3-carboxamide]
- IC50 (1b (BK) NS5bΔ21): < 0.99 µM
- EC50 [1]: 10 to 50 µM

SMILES: CNC(=O)c1c2cc(C3CC3)c(N(CCO)S(C)(=O)=O)cc2nn1-c1ccc(F)cc1 [Compound 14, 5-cyclopropyl-2-(4-fluorophenyl)-6-[(2-hydroxyethyl)(methylsulfonyl)amino]-N-methyl-2H-indazole-3-carboxamide]
- IC50 (1b (BK) NS5bΔ21): 10 to 50 µM
- EC50 [1]: 1 to 9.99 µM

SMILES: CNC(=O)c1c2cc(C3CC3)c(N(CCO)S(C)(=O)=O)cc2nn1-c1ccc(Oc2ccccc2F)cc1 [Compound 18]
- IC50 (1b (BK) NS5bΔ21): 1 to 9.99 µM
- EC50 [1]: 1 to 9.99 µM

SMILES: CNC(=O)c1c2cc(C3CC3)c(N(CCO)S(C)(=O)=O)cc2nn1-c1ccc(Nc2ccc(F)cc2)cc1 [Compound 19]
- IC50 (1b (BK) NS5bΔ21): < 0.99 µM
- EC50 [1]: < 0.99 µM

SMILES: CCN(c1cc2nn(-c3ccc(Br)cc3)c(C(=O)NC)c2cc1C1CC1)S(C)(=O)=O [Compound 20]
- IC50 (1b (BK) NS5bΔ21): < 0.99 µM
- EC50 [1]: < 0.99 µM

SMILES: CCN(c1cc2nn(-c3ccc(Oc4ccc(F)cc4)cc3)c(C(=O)NC)c2cc1C1CC1)S(C)(=O)=O [Compound 23]
- IC50 (1b (BK) NS5bΔ21): < 0.99 µM
- EC50 [1]: < 0.99 µM

SMILES: CNC(=O)c1c2cc(C3CC3)c(N(CCO)S(C)(=O)=O)cc2nn1-c1ccc(Br)cc1 [Compound 24]
- IC50 (1b (BK) NS5bΔ21): < 0.99 µM
- EC50 [1]: < 0.99 µM

SMILES: CCN(c1cc2nn(-c3ccc(Nc4ccccc4F)cc3)c(C(=O)NC)c2cc1C1CC1)S(C)(=O)=O [Compound 25]
- IC50 (1b (BK) NS5bΔ21): < 0.99 µM
- EC50 [1]: < 0.99 µM

SMILES: CNC(=O)c1c2cc(C3CC3)c(N(CCO)S(C)(=O)=O)cc2nn1-c1ccc(Nc2ccccc2F)cc1 [Compound 26]
- IC50 (1b (BK) NS5bΔ21): < 0.99 µM
- EC50 [1]: < 0.99 µM

SMILES: CNC(=O)c1c2cc(C3CC3)c(N(CCO)S(C)(=O)=O)cc2nn1-c1ccc(Nc2ccccc2)cc1 [Compound 27]
- IC50 (1b (BK) NS5bΔ21): < 0.99 µM
- EC50 [1]: < 0.99 µM

SMILES: CNC(=O)c1c2cc(C3CC3)c(N(CCCO)S(C)(=O)=O)cc2nn1-c1ccc(Oc2ccccc2F)cc1 [Compound 29]
- IC50 (1b (BK) NS5bΔ21): < 0.99 µM
- EC50 [1]: < 0.99 µM

SMILES: CNC(=O)c1c2cc(C3CC3)c(N(CCCO)S(C)(=O)=O)cc2nn1-c1ccc(Oc2ccc(F)cc2)cc1 [Compound 30]
- IC50 (1b (BK) NS5bΔ21): < 0.99 µM
- EC50 [1]: < 0.99 µM

SMILES: CNC(=O)c1c2cc(C3CC3)c(N(CCO)S(C)(=O)=O)cc2nn1-c1ccc(Oc2ccccc2)cc1 [Compound 35]
- IC50 (1b (BK) NS5bΔ21): 1 to 9.99 µM
- EC50 [1]: < 0.99 µM

SMILES: CNC(=O)c1c2cc(C3CC3)c(N(CCNC(C)=O)S(C)(=O)=O)cc2nn1-c1ccc(Oc2ccc(F)cc2)cc1 [Compound 36]
- IC50 (1b (BK) NS5bΔ21): 1 to 9.99 µM
- EC50 [1]: 1 to 9.99 µM

SMILES: CNC(=O)c1c2cc(C3CC3)c(N(CCNC(C)=O)S(C)(=O)=O)cc2nn1-c1ccc(Br)cc1 [Compound 37]
- IC50 (1b (BK) NS5bΔ21): 1 to 9.99 µM
- EC50 [1]: 1 to 9.99 µM

SMILES: CCN(c1cc2nn(-c3ccc(NC(C)C)cc3)c(C(=O)NC)c2cc1C1CC1)S(C)(=O)=O [Compound 38]
- IC50 (1b (BK) NS5bΔ21): 1 to 9.99 µM
- EC50 [1]: < 0.99 µM

SMILES: CCN(C(C)=O)c1cc2nn(-c3ccc(Br)cc3)c(C(=O)NC)c2cc1C1CC1 [Compound 48, 6-[Acetyl(ethyl)amino]-2-(4-bromophenyl)-5-cyclopropyl-N-methyl-2H-indazole-3-carboxamide]
- IC50 (1b (BK) NS5bΔ21): 10 to 50 µM
- EC50 [1]: 1 to 9.99 µM

SMILES: CNC(=O)c1c2cc(C3CC3)c(N(CCCO)S(C)(=O)=O)cc2nn1-c1ccc(C(C)C)cc1 [Compound 50, 5-cyclopropyl-6-[(3-hydroxypropyl)(methylsulfonyl)amino]-N-methyl-2-[4-(propan-2-yl)-phenyl]-2H-indazole-3-carboxamide]
- IC50 (1b (BK) NS5bΔ21): 1 to 9.99 µM
- EC50 [1]: 1 to 9.99 µM

SMILES: CNC(=O)c1c2cc(C3CC3)c(N(C3CCN(S(C)(=O)=O)C3)S(C)(=O)=O)cc2nn1-c1ccc(Br)cc1 (centres unmarked) [Compound 52, 2-(4-bromophenyl)-5-cyclopropyl-N-methyl-6-{(methylsulfonyl)[1-(methylsulfonyl)pyrrolidin-3-yl]amino}-2H-indazole-3-carboxamide]
- IC50 (1b (BK) NS5bΔ21): < 0.99 µM
- EC50 [1]: < 0.99 µM

SMILES: CNC(=O)c1c2cc(C3CC3)c(N(CCCO)S(C)(=O)=O)cc2nn1-c1ccc(C2CC2)cc1 [Compound 53, 5-cyclopropyl-2-(4-cyclopropylphenyl)-6-[(3-hydroxypropyl)(methylsulfonyl)amino]-N-methyl-2H-indazole-3-carboxamide]
- IC50 (1b (BK) NS5bΔ21): 1 to 9.99 µM
- EC50 [1]: < 0.99 µM

SMILES: CNC(=O)c1c2cc(C3CC3)c(N(CCCO)S(C)(=O)=O)cc2nn1-c1ccc(OC)cc1 [Compound 55, 5-cyclopropyl-6-[(3-hydroxypropyl)(methylsulfonyl)amino]-2-(4-methoxyphenyl)-N-methyl-2H-indazole-3-carboxamide]
- IC50 (1b (BK) NS5bΔ21): 1 to 9.99 µM
- EC50 [1]: 1 to 9.99 µM

SMILES: CNC(=O)c1c2cc(C3CC3)c(N(CCCF)S(C)(=O)=O)cc2nn1-c1ccc(Cl)cc1 [Compound 57, 2-(4-chlorophenyl)-5-cyclopropyl-6-[3-fluoropropyl(methylsulfonyl)amino]-N-methyl-2H-indazole-3-carboxamide]
- IC50 (1b (BK) NS5bΔ21): < 0.99 µM
- EC50 [1]: < 0.99 µM

SMILES: CNC(=O)c1c2cc(C3CC3)c(N(CCCNC(=O)CCC(=O)O)S(C)(=O)=O)cc2nn1-c1ccc(Nc2ccc(F)cc2)cc1 [Compound 58, 4-[(3-{[5-Cyclopropyl-2-{4-[(4-fluorophenyl)amino]phenyl}-3-(methylcarbamoyl)-2H-indazol-6-yl](methylsulfonyl)amino}propyl)amino]-4-oxobutanoic acid]
- IC50 (1b (BK) NS5bΔ21): < 0.99 µM
- EC50 [1]: 10 to 50 µM

SMILES: CNC(=O)c1c2cc(C3CC3)c(N(CCCNC(C)=O)S(C)(=O)=O)cc2nn1-c1ccc(NCC(C)C)cc1 [Compound 60, 6-{[3-(acetylamino)propyl](methylsulfonyl)amino}-5-cyclopropyl-N-methyl-2-(4-[(2-methylpropyl)amino]phenyl)-2H-indazole-3-carboxamide]
- IC50 (1b (BK) NS5bΔ21): 1 to 9.99 µM
- EC50 [1]: 1 to 9.99 µM

SMILES: CNC(=O)c1c2cc(C3CC3)c(N(CCCNC(=O)CCN)S(C)(=O)=O)cc2nn1-c1ccc(Br)cc1 [Compound 61, 6-{[3-(β-Alanylamino)propyl](methylsulfonyl)amino}-2-(4-bromophenyl)-5-cyclopropyl-N-methyl-2H-indazole-3-carboxamide]
- IC50 (1b (BK) NS5bΔ21): < 0.99 µM
- EC50 [1]: 1 to 9.99 µM

SMILES: CNC(=O)c1c2cc(C3CC3)c(N(CCCNC(=O)[C@H]3CCC[C@H]3C(=O)O)S(C)(=O)=O)cc2nn1-c1ccc(Br)cc1 [Compound 63, (1R,2S)-2-[(3-{[2-(4-Bromophenyl)-5-cyclopropyl-3-(methylcarbamoyl)-2H-indazol-6-yl](methylsulfonyl)amino}propyl)carbamoyl]cyclopentanecarboxylic acid]
- IC50 (1b (BK) NS5bΔ21): < 0.99 µM
- EC50 [1]: < 0.99 µM

SMILES: CNC(=O)c1c2cc(C3CC3)c(N(CCCNC(=O)C3COCCN3C)S(C)(=O)=O)cc2nn1-c1ccc(Br)cc1 (centres unmarked) [Compound 64, 2-(4-Bromophenyl)-5-cyclopropyl-N-methyl-6-{[3-({[4-methylmorpholin-3-yl]carbonyl}amino)propyl](methylsulfonyl)amino}-2H-indazole-3-carboxamide]
- IC50 (1b (BK) NS5bΔ21): < 0.99 µM
- EC50 [1]: < 0.99 µM

SMILES: CNC(=O)c1c2cc(C3CC3)c(N(CCCN(C)C)S(C)(=O)=O)cc2nn1-c1ccc(Br)cc1 [Compound 65, 2-(4-Bromophenyl)-5-cyclopropyl-6-{[3-(dimethylamino)propyl] (methylsulfonyl)amino}-N-methyl-2H-indazole-3-carboxamide]
- IC50 (1b (BK) NS5bΔ21): < 0.99 µM
- EC50 [1]: < 0.99 µM

SMILES: CNC(=O)c1c2cc(C3CC3)c(N(CCCNC(=O)CCC(=O)NC(C)C)S(C)(=O)=O)cc2nn1-c1ccc(Br)cc1 [Compound 67]
- IC50 (1b (BK) NS5bΔ21): < 0.99 µM
- EC50 [1]: 1 to 9.99 µM
